Measurements reported in patent US20230287391A1, “KRAB FUSION REPRESSORS AND METHODS AND COMPOSITIONS FOR REPRESSING GENE EXPRESSION” (THE GOVERNING COUNCIL OF THE UNIVERSITY OF TORONTO, priority 2020, published 2023).

Columns and labels:
Format in all cases: cell-based, human
[1] = system: 7×TetO array downstream of the polyadenylation site of a PGK1-EGFP-pA reporter in K562 cells; assay: PGK1-EGFP-pA reporter silencing by KRAB-dCas9 fusions tethered to a 7xTetO array in K562 cells; conditions: KRAB fused to N terminus of dCas9
Excerpt: (§1) The human genome encodes over 350 KRAB domain proteins. It was postulated that KRAB domains would differ in their ability to silence gene expression when fused to dCas9. 57 human KRAB domains were individually fused to the N terminus of dCas9 and assayed for activity when recruited to one of two different genomically integrated reporter constructs. In one, they were recruited to a SV40 promoter driving EGFP expression in HEK293T cells, and in the other tethered to a 7×TetO array downstream of the polyadenylation site of a PGK1-EGFP-pA reporter in K562 cells (FIG. 1a). KRAB domains had strikingly different effects, spanning from almost complete silencing to no change at all (FIG. 1b,c and FIG. 5). The differences were not explained by expression levels of the dCas9 fusion (FIG. 3). […] KRAB was also fused to the C-terminus of dCas9 with similar results (see Example 5 and FIG. 3).
(§2) Cell culture. All HEK293T cells, including the SV40-EGFP reporter cell line (gift from Lei Stanley Qi lab, Stanford University), were maintained in Dulbecco's Modified Eagle's Medium (DMEM) with 10% fetal bovine serum (FBS), and 1% penicillin-streptomycin. Since the SV40-EGFP reporter cell line was originally generated with a random integration of lentivirus, a clonal line was made to ensure homogeneously high expression levels of EGFP and its targeting gRNA. […]

HEK293T cells = assay: Genome-wide CRISPRi cell viability dropout screen (Dolcetto Set A); conditions: depletion of gRNAs for gold-standard essential vs non-essential genes after 21 days
Excerpt: Finally, the performance of the three KRAB effector constructs was investigated in a large-scale unbiased screen. […] These cells were infected with the recently described Dolcetto Set A gRNA library targeting 18,901 genes with three gRNAs per gene and measured gRNA depletion after 21 days. The relative depletion of gRNAs targeting gold-standard essential genes and non-essential genes with each construct was compared with receiver operating characteristics (ROC) curves. […] It should be noted that the AUROC values reported here are somewhat lower than what has been reported for CRISPRi screens in other cell lines like K562 and […] but in line with the previously conducted screen in HEK293T cells (FIG. 2D, E). The lower efficiency may be due to the lower expression level of TRIM28 in HEK293T cells (FIG. 3).
CRISPRi. Viral titer for each cell line was determined on 15-cm dishes with a range of virus volumes (0, 50, 100, 150, 200, 250 and 500 μl). Validated HEK293T cells with heterogeneous expression of each repressor-dCas9 derivative was transduced at a dose resulting in ˜30% […]. Selection was done with 1 μg/ml puromycin 24 hrs post transduction resulting in complete selection within 48-72 hrs (TO). At ˜30% infection efficiency, enough cells were transduced to achieve an initial representation of >500-fold for each dCas9 variant. […]

[2] = system: SV40 promoter driving EGFP expression in HEK293T cells; assay: SV40-EGFP reporter silencing by KRAB-dCas9 fusions in HEK293T cells; conditions: KRAB fused to N terminus of dCas9, flow cytometry 21 d after infection
Excerpt: as §1, §2

[3] = system: SV40-EGFP reporter cell line; assay: ABA-induced recruitment of KRAB-PYL1 to ABI1-dCas9 at the SV40-EGFP reporter
Excerpt: The difference in KRAB-domain activity might be explained either by their intrinsic potency or by their distinct temporal dynamics. […] The interaction between plant proteins […] and PYL1 is induced by abscisic acid (ABA) in a reversible manner (FIG. 1f). A clonal SV40-EGFP reporter cell line expressing ABI1—dCas9 and a gRNA targeting two sites on the SV40 promoter was generated. These cells were then infected with either ZIM3 or KOX1 KRAB domain fused to PYL1 and treated with ABA for 20 d (FIG. 1g, solid lines). […] When ABA was withdrawn after 9d, derepression occurred with similar dynamics with both KRAB domains (FIG. 1g, dashed lines). Thus, the difference in KRAB-domain potency is not due to slower dynamics of KOX1 KRAB induced repression. […] This is consistent with previous studies showing that KRAB domains can mediate silencing via both reversible and irreversible mechanisms.

| Substance | repression of EGFP reporter [1] | AUROC (gRNA-level) (HEK293T cells) | AUROC (gene-level) (HEK293T cells) | repression of EGFP reporter [2] | repression of EGFP reporter ([2]; listed as KOX1) | level of EGFP repression ([3]; 100 μM ABA for 20 d, compared with KOX1 KRAB-PYL1) | EGFP expression relative to the original levels ([3]; after 40-d silencing followed by ABA washout) |
| --- | --- | --- | --- | --- | --- | --- | --- |
| KOX1 KRAB: KRAB domain from KOX1 (ZNF10) fused to dCas9, used in current implementations of CRISPRi | not a particularly strong repressor | 0.62 | 0.66 | not a particularly strong repressor | did not repress the reporter very robustly | – | – |
| ZIM3 KRAB-PYL1: ZIM3 KRAB domain fused to PYL1 (SEQ ID NO: 16), recruited to ABI1-dCas9 by abscisic acid | – | – | – | – | – | higher level of repression | 10% |
